These results are taken from ChEMBL document CHEMBL2177093, “The design and identification of brain penetrant inhibitors of phosphoinositide 3-kinase α” (J Med Chem, 2012).

Molecules are shown by their SMILES.

Data set [1] concerns mouse Bcrp1. Description: in vitro. The following applies: dog.
Data set [2] in a line: Ratio of drug level in brain to plasma in CD-1 mouse at 15 mg/kg, po at 4 hrs. It counts as ADME, organism-based. On the set-up: dose 15 mg/kg, route oral. The following applies: read-out: BPR.
Data set [3] in a line: Plasma protein binding in CD-1 mouse. The class given is ADME, cell-free. The conditions noted are these: read-out: PPB (converted).
The nature of data set [4]: in vitro. The conditions noted are these: human, liver microsomes. On the technique in general: Microsomes from liver hold many membrane-bound enzymes, among them those of drug oxidation.
Data set [5] is described as follows: Ratio of drug level in brain to plasma in CD-1 mouse at 15 mg/kg, po at 0.5 hr. Further details: dose 15 mg/kg, route oral. It counts as ADME, organism-based. The following applies: read-out: BPR.
Data set [6] is described as follows: Half life in po dosed CD-1 mouse. The class given is ADME, organism-based. The following applies: in vivo.
For data set [7], the target named is Serine/threonine-protein kinase mTOR (Homo sapiens, UniProt P42345). Description: Inhibition of human recombinant mTOR (1360 to 2549 amino acids) assessed as reduction in phosphorylation of (GFP)-4-EBP1 after 30 mins by FRET assay. The following applies: read-out: Ki(app).
A short description of data set [8]: Ratio of drug level in brain to plasma in CD-1 mouse at 15 mg/kg, po measured at 0.5 hrs. It counts as ADME, organism-based. On the set-up: dose 15 mg/kg, route oral. The conditions noted are these: read-out: BPR.
Data set [9] is described as follows: Clearance in rat. It counts as ADME, organism-based. The following applies: in vivo.
Data set [10] in a line: Ratio of drug level in brain to plasma in CD-1 mouse at 20 mg/kg, po measured at 1 hr. The conditions noted are these: read-out: BPR. Further details: dose 20 mg/kg, route oral. The class given is ADME, organism-based.
Data set [11] in a line: Ratio of drug level in brain to plasma in CD-1 mouse at 10 mg/kg, po measured at 0.5 hrs. The class given is ADME, organism-based. On the set-up: dose 10 mg/kg, route oral. The conditions noted are these: read-out: BPR.
A short description of data set [12]: Clearance in po dosed CD-1 mouse. The following applies: in vivo. It counts as ADME, organism-based.
Data set [13] can be described thus: Protein binding in CD-1 mouse brain at 25 mg/kg, po administered as single dose. The class given is ADME, organism-based. Further details: dose 25 mg/kg, route oral. The following applies: read-out: PB (converted).
Data set [14] is described as follows: Ratio of drug level in brain to plasma in CD-1 mouse at 15 mg/kg, po at 1 hr. It counts as ADME, organism-based. On the set-up: dose 15 mg/kg, route oral. The following applies: read-out: BPR.
Data set [15] is described as follows: Oral bioavailability in CD-1 mouse. The class given is ADME, organism-based. The conditions noted are these: in vivo.
Data set [16] in a line: Protein binding in CD-1 mouse plasma at 25 mg/kg, po administered as single dose. The following applies: read-out: PPB (converted). It counts as ADME, organism-based. On the set-up: dose 25 mg/kg, route oral.
Data set [17] can be described thus: Ratio of drug level in brain to plasma in CD-1 mouse at 15 mg/kg, po at 6 hrs. The class given is ADME, organism-based. Further details: dose 15 mg/kg, route oral. The conditions noted are these: read-out: BPR.

A word on the efflux ratio: it is a quotient of directional permeabilities that is used to spot active efflux. `Nc1ncc(-c2nc(N3CCOCC3)c3sc(C4CNC4)cc3n2)cn1`: the efflux ratio at 2 h, 5 µM in data set [1] was determined as 22.

The term half-life denotes the time in which the quantity being followed falls by half. Higher therefore signals slow loss. For the compound `CC(C)(O)c1cc2nc(-c3cnc(N)nc3)nc(N3CCOCC3)c2s1`, the Kp at 4 h in data set [2] stood at 0.2. Further, the fraction unbound in data set [3] is 0.198. Moreover, the CLhep predicted in data set [4] is 4 mL/min/kg. In addition, the Kp at 0.5 h in data set [5] turned out to be 0.3; in data set [8] it was 0.2. This compound gave a half-life in data set [6] of 2.2 h. For the same compound, the Ki in data set [7] was determined as 30 nM.

In the case of `COCCOC1(c2cc3nc(-c4cnc(N)nc4)nc(N4CCOCC4)c3s2)COC1`, the efflux ratio at 2 h, 5 µM in [1] was 1.4.

A word on the clearance: it is a measure of how efficiently the substance is removed, as volume per time. Low values mean inefficient removal, high ones efficient removal. `Cc1c(CN2CCN(C(=O)[C@H](C)O)CC2)sc2c(N3CCOCC3)nc(-c3cnc(N)nc3)nc12` [APITOLISIB] displayed a clearance in data set [9] of 3 mL/min/kg. In addition, the CLhep predicted in data set [4] is 3 mL/min/kg. Besides, the Kp at 1 h in data set [10] was under 0.1.

For the compound `CS(=O)(=O)N1CCN(Cc2cc3nc(-c4cccc5[nH]ncc45)nc(N4CCOCC4)c3s2)CC1` [PICTILISIB], the Kp at 0.5 h in data set [11] is under 0.05.

For the compound `Cc1c(C(C)(C)O)sc2c(N3CCOCC3)nc(-c3cnc(N)nc3)nc12`, the efflux ratio at 2 h, 5 µM in [1] worked out at 5.4.

The CL/F is the apparent clearance, not corrected for the fraction that reaches the circulation. Broadly, the bioavailability is the share of a dose that reaches the circulation, judged against a reference dose that is usually intravenous. For the compound `CC1(C)OCCc2c1sc1c(N3CCOCC3)nc(-c3cnc(N)nc3)nc21`, the apparent clearance CL/F in data set [12] came out at 16 mL/min/kg. In addition, the fraction unbound was 0.006 in data set [3], 0.003 in [13] and 0.006 in data set [16]. The efflux ratio at 2 h, 5 µM in data set [1] was found to be 2.3. In data set [14], the Kp at 1 h came to 1.4. The bioavailability in data set [15] came out at 93%. In addition, in data set [6], the half-life is 2.9 h. Besides, the Ki in [7] is 13 nM. In addition, in data set [17], the Kp at 6 h stood at 1.6.

For the compound `Cc1c(C2(O)COC2)sc2c(N3CCOCC3)nc(-c3cnc(N)nc3)nc12`, the efflux ratio at 2 h, 5 µM in [1] was found to be 7.1.
